# In patent US20110059909A1, “METHODS FOR TREATING INFLAMMATORY DISORDERS” (priority 2004, published 2011):
# Tests used:
# [1] = cited from earlier work
# rat primary astrocytes [2] = assay: Assay for NO production (nitrite, Griess reagent) in LPS/IFNγ-stimulated primary astrocytes; type: cell-based; conditions: for LPS/IFNγ-induced NO production: primary astrocytes, LPS/IFNγ (1 μg/ml; 10 U/ml), NO at 24 h; for Reversal of PDMP-mediated inhibition of LPS/IFNγ-induced NO production: PDMP 50 μM plus exogenous glycosphingolipid 5 and 10 μM, 0.5 h before LPS/IFNγ
# Procedure: (§1) Primary astrocyte-enriched cultures were prepared from the whole cortex of one day old Sprague-Dawley rats as described earlier (Pahan et al., 1998b). Briefly, the cortex was rapidly dissected in ice-cold calcium/magnesium free Hanks Balanced Salt Solution (HBSS) (Gibco, Grand Island, N.Y.) at pH 7.4 as described previously (Won et al., 2001). The tissue was then minced, incubated in HBSS containing trypsin (2 mg/ml) for 20 min and washed twice in plating medium containing 10% FBS and 10 μg/ml gentamicin, and then disrupted by triturating through a Pasteur pipette following which cells were seeded in 75-cm^2 culture flasks (Falcon, Franklin, N.J.). After incubation at 37° C. in 5% CO2 for 1 day, the medium was completely changed to the culture medium (DMEM containing 5% FBS and 10 μg/ml gentamicin). The cultures received half exchanges with fresh medium twice a week. After 14-15 days the cells were shaken for at least 24 h on an orbital shaker to remove the microglia and then seeded on multi-well tissue culture dishes. The cells were incubated with serum-free DMEM for 24 h prior to the incubation with drugs.
# Cells were cultured in 12-well plastic tissue culture plates. Following appropriate treatment, production of NO was determined by an assay of the culture supernatant for nitrite (Green et al., 1982). Briefly, 100 μl of culture supernatant was allowed to react with 100 μl of Griess reagent. The optical density of the assay samples was measured spectrophotometrically at 570 nm. Nitrite concentrations were calculated from a standard curve derived from the reaction of NaNO2 in fresh media.
# small GTPase Ras = assay: Quantification of Ras activation (GST-Raf-1 RBD pull-down) in primary astrocytes; type: cell-based, rat; conditions: for LacCer-mediated Ras activation: NAC 10 mM or PDTC 100 μM 1 h, LacCer 5 min
# Procedure: After stimulation, primary astrocytes in 6-well plates were washed with ice cold PBS and lysed in membrane lysis buffer (MLB; 0.5 ml of 25 mM HEPES, pH 7.5, 150 mM NaCl, 1% Igepal CA-630, 0.25% sodium deoxycholate, 10% glycerol, 10 mM MgCl2, 1 mM EDTA, 25 mM NaF, 1 mM of sodium orthovanadate, and EDTA free Complete™ protease inhibitor cocktail). After centrifugation (5,000×g) at 4° C. for 5 min, supernatant was used for Ras activation assay. One hundred μg of supernatant was used for binding with agarose conjugated Ras-binding domain (RBD) of Raf-1 which was expressed in BL21 (Invitrogen), Escherichia coli strain, transformed by pGEX-2T-GST-RBD in the presence of 0.1 mM of IPTG as described previously (Herrmann et al., 1995). The binding reaction was performed at 4° C. for 30 min in MLB. Following washing with MLB three times, Ras-RBD complex were denatured by adding of 2×SDS sample buffer. Ras protein was identified by western blot analysis with Ras antibodies from Upstate Biotechnology.
# iNOS = iNOS mRNA (RT-PCR) and protein (immunoblot) in LPS/IFNγ-stimulated primary astrocytes; type: cell-based, rat; conditions: primary astrocytes; LPS/IFNγ (1 μg/ml; 10 U/ml); mRNA 6 h, protein 24 h
# Procedure: as §1
# (§2) For iNOS protein, the cells were washed with cold Tris buffered saline (TBS; 20 mM Trizma base, and 137 mM NaCl, pH 7.5), lysed in 1×SDS sample loading buffer (62.5 mM Trizma base, 2% w/v SDS, 10% glycerol), following sonication and centrifugation at 15,000×g for 5 min, the supernatant was used for the iNOS western immunoblot assay. The protein concentration of samples was determined with the detergent compatible protein assay reagent (Bio-Rad Laboratories, CA) using bovine serum albumin (BSA) as the standard. Sample was boiled for 3 min with 0.1 volumes of 10% β-mercaptoethanol and 0.5% bromophenol blue mix. Fifty μg of total cellular protein was resolved by electrophoresis on 8 or 12% polyacrylamide gels, electro-transferred to polyvinylidene difluoride (PVDF) filter and blocked with Tween 20 containing Tris-buffered saline (TBST; 10 mM Trizma base-pH 7.4, 1% Tween 20, and 150 mM NaCl) with 5% skim milk. After incubation with antiserum against iNOS (BD PharMingen, CA), rat GalT-2 (Abjent Inc., CA), H-Ras (Upstate Biotechnology, CA), GFAP (Santa Cruz Biotech, CA), or phospho-specific ERK1/2 (Cell signaling Tech Inc., MA), or pIκ-B (Signal Transduction), in PVDF buffer for 2 h at room temperature, the filters were washed 3 times with TBST buffer and then incubated with horseradish peroxidase conjugated anti-rabbit or mouse IgG for 1 h. The membranes were detected by autoradiography using ECL-plus (Amersham Pharmacia Biotech) after washing with TBST buffer.
# 5 μg total RNA was treated with 2 U DNAse I (bovine pancreas, Sigma) for 15 min at room temperature in 18 μl volume containing 1×PCR buffer and 2 mM MgCl2. It was then inactivated by incubation with 2 μl of 25 mM EDTA at 65° C. for 15 min. 2 μl of random primers were added and annealed to the RNA according to the manufacturer's protocol. cDNA was synthesized in a 50 μl reaction containing 5 μg of total RNA and 50-100 U reverse transcriptase by incubating the tubes at 42° C. for 60 min. PCR amplification was conducted in 25 μl of reaction mixture with 1.0 μl of cDNA, […] of each primer and under the manufacturer's Taq polymerase conditions (Takara, Takara Shuzo Co. Ltd, Japan). The sequence of primers used for PCR amplification are as follows; iNOS, (Forward-5′ […] 3′, SEQ ID NO:3; Reverse-5′ […] 3′, SEQ ID NO:4), GalT-2 (Forward-5′ tggtacaagctagaggc 3′, SEQ ID NO:5; Reverse-5′ gcatggcacattgaa C-3′, SEQ ID NO:6), GAPDH (Forward-5′ […] 3′, SEQ ID NO:7; Reverse-5′ cttcacgaagttgtcattgagggca3′, SEQ ID NO:8), TNFα (Forward-5′ […] g-3′, SEQ ID NO:9; Reverse-5′[…]-3′, SEQ ID NO:10) and IL-1β (Forward-5′[…]-3′, SEQ ID NO:11; reverse-5′[…]-3′, SEQ ID NO:12).
# rat primary astrocytes [3] = assay: BrdU incorporation assay, proliferation of primary astrocytes; type: cell-based; conditions: for Proliferation of astrocytes induced by the substance itself: increasing doses (1, 5 and 10 μM for GSL), 18 h
# Procedure: as §1
# Proliferation of primary astrocytes was assayed by using the Cell proliferation ELISA, BrdU colorimetric assay kit (Roche, Germany) according to manufacturer's protocol. Briefly, cells were seeded in 96 well plates in quadruplicate and following overnight serum starvation were stimulated with mitogenic stimulants. 2 h before termination of proliferation assay, BrdU (10 μM) was added to each well following which cells were fixed and levels of incorporated BrdU were assayed by using a conjugated anti-BrdU enzyme. Colorimetric analysis was done by measuring absorbance at 370 nm using a spectramax MAX 190 (Molecular devices) multi-well plate reading spectrophotometer.
# GFAP = GFAP mRNA (real time PCR) and protein (immunoblot) in TNFα-stimulated primary astrocytes; type: cell-based, rat
# Procedure: as §2
# ERK1/2 = ERK1/2 activation (phospho-ERK1/2 immunoblot) in primary astrocytes; type: cell-based, rat; conditions: pretreated 0.5 h, TNFα 20 min
# Procedure: as §2
# PI-3K = assay: PI-3 kinase activity assay; type: cell-based, rat; conditions: exogenous lipid
# Procedure: Cells after stimulation in serum-free DMEM/F-12 were lysed with ice-cold lysis buffer containing 1% (vol/vol) NP-40,100 mM NaCl, 20 mM Tris (pH 7.4), 10 mM iodoacetamide, 10 mM NaF, 1 mM sodium orthovanadate, 1 mM […], 1 μg/ml leupeptin, 1 μg/ml antipain, 1 mg/ml aprotinin, and 1 μg/ml pepstatin A. Lysates were incubated at 4° C. for 15 min, followed by centrifugation at 13,000 g for 15 min. The supernatant was pre-cleared with protein G-Sepharose beads (Pharmacia Biotech) for 1 h at 4° C. followed by the addition of 1 μg/ml p85α monoclonal antibody. After 2 h of incubation at 4° C., protein G-Sepharose beads were added and the resulting mixture was further incubated for 1 h at 4° C. The immunoprecipitates were washed twice with lysis buffer, once with phosphate-buffered saline (PBS), once with 0.5 M LiCl and 100 mM Tris (pH 7.6), once in water, and once in kinase buffer (5 mM MgCl2, 0.25 mM EDTA, 20 mM HEPES, pH 7.4). PI-3kinase activity was determined as already described (Ward et al., 1992; Pahan et al., 1999) using a lipid mixture of 100 μl of 0.1 mg/ml PI and 0.1 mg/ml phosphatidylserine dispersed by sonication in 20 mM HEPES (pH 7.0) and 1 mM EDTA. The reaction was initiated by the addition of 20 of [γ-32P] […]
compound,measurement,setting,value
"CCCCN1CC(O)C(O)C(O)C1CO [Miglustat, 1,5-(butylimino)-1,5-dideoxy-D-glucitol]",Solubility in water,[1],soluble in water
"CC(=O)N[C@@H](CS)C(=O)O [NAC, N-Acetyl cysteine]",LPS/IFNγ-induced NO production,rat primary astrocytes [2],blocked
same,LacCer-mediated Ras activation,small GTPase Ras,inhibited
same,LPS/IFNγ-induced iNOS mRNA and protein levels,iNOS,blocked
COc1cccc(-c2cc(=O)c3ccccc3o2)c1N [PD98059],LPS/IFNγ-induced NO production,rat primary astrocytes [2],inhibition
same,TNFα-induced astrocyte proliferation,"rat primary astrocytes [3]; pretreated 0.5 h (AS: 48 h after transfection), TNFα 1 ng/ml 18 h, BrdU incorporation",inhibited
same,TNFα-induced GFAP mRNA and protein expression,"GFAP; TNFα 1 ng/ml, mRNA 8 h, protein 18 h",inhibited
same,TNFα-induced ERK1/2 phosphorylation,ERK1/2,inhibited
same,LPS/IFNγ-induced iNOS mRNA and protein levels,iNOS,inhibition
"S=C(S)N1CCCC1 [PDTC, pyrrolidine dithiocarbamate]",LPS/IFNγ-induced NO production,rat primary astrocytes [2],blocked
same,LacCer-mediated Ras activation,small GTPase Ras,inhibited
same,LPS/IFNγ-induced iNOS mRNA and protein levels,iNOS,blocked
"CCCCCCCCCCCCC/C=C/[C@@H](O)[C@@H](N)COP(=O)(O)O [S1P, sphingosine-1-phosphate]",Reversal of DMS-mediated inhibition of Ras activation,small GTPase Ras; exogenous lipid,reverses
same,Reversal of PDMP-mediated inhibition of TNFα-induced proliferation,rat primary astrocytes [3]; PDMP 25 μM plus exogenous lipid,could not be reversed
same,Reversal of DMS-mediated inhibition of TNFα-induced proliferation,rat primary astrocytes [3]; exogenous lipid,reversed
same,Reversal of PD98059-mediated inhibition of TNFα-induced proliferation,rat primary astrocytes [3]; exogenous lipid,could not be reversed
same,Proliferation of astrocytes induced by the substance itself,rat primary astrocytes [3]; BrdU incorporation,induced astrocyte proliferation
same,Reversal of DMS-mediated inhibition of PI-3K activation,PI-3K,able to reverse
same,Reversal of DMS-mediated inhibition of TNFα-induced GFAP expression,GFAP; exogenous lipid,reversed
Glucosylceramide [GluCer],Reversal of PDMP-mediated inhibition of LPS/IFNγ-induced NO production,rat primary astrocytes [2],did not reverse
same,Proliferation of astrocytes induced by the substance itself,rat primary astrocytes [3]; BrdU incorporation,did not have a similar effect
galactosylceramide [GalCer],Reversal of PDMP-mediated inhibition of LPS/IFNγ-induced NO production,rat primary astrocytes [2],did not reverse
same,Proliferation of astrocytes induced by the substance itself,rat primary astrocytes [3]; BrdU incorporation,neither induced proliferation
